Test results taken from PubChem BioAssay (NCI).
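The compound was tested at five concentrations on cells cultured in 96-well plates, with a 48-hour exposure period. GI50 = concentration required for 50% inhibition of growth. TGI is the concentration that stops growth completely.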

Experiments:
Assay in all cases: inhibition of tumour cell growth, NCI panel, 48 h
[1] = system: SK-OV-3 ovarian
[2] = system: CCRF-CEM leukemia
[3] = system: CAKI-1 renal
[4] = system: SF-295 CNS
[5] = system: HL-60(TB) leukemia
[6] = system: SN12C renal
[7] = system: SK-MEL-2 melanoma
[8] = system: NCI-H522 lung
[9] = system: SNB-19 CNS
[10] = system: NCI-H23 lung
[11] = system: MOLT-4 leukemia
[12] = system: TK-10 renal
[13] = system: SR leukemia
[14] = system: MDA-N
[15] = system: T-47D breast
[16] = system: HS 578T breast

Row | Structure (SMILES) | TGI [1] | TGI [2] | TGI [3] | TGI [4] | TGI [5] | TGI [6] | TGI [7] | TGI [8] | TGI [9] | TGI [10] | TGI [11] | TGI [12] | TGI [13] | TGI [14] | TGI [15] | TGI [16] | GI50 [5]
1 | Cc1c2c(cc3c1[nH]c1ccccc13)C=NCC2 | 97.2 µM | 30.5 µM | 31.6 µM | 27.1 µM | 27.8 µM | 62.6 µM | 21.1 µM | 41.8 µM | 45.8 µM | 82.4 µM | 24.8 µM | – | – | – | – | – | –
2 | C=C1C(=O)OC2(C)C3CCC(C3)C12 (centres undefined) | > 100 µM | > 100 µM | 99.4 µM | > 100 µM | 84.6 µM | > 100 µM | > 100 µM | 85.8 µM | > 100 µM | > 100 µM | > 100 µM | 85.7 µM | > 100 µM | – | – | – | –
3 | COc1ccccc1-c1cc(=O)c2ccccc2[nH]1 | > 100 µM | > 100 µM | – | > 100 µM | > 100 µM | > 100 µM | – | > 100 µM | > 100 µM | > 100 µM | > 100 µM | > 100 µM | > 100 µM | – | – | – | –
4 | Cc1ccc(S(=O)(=O)/N=C(\NN)Nc2ccc(Cl)cc2)cc1 | > 100 µM | > 100 µM | > 100 µM | > 100 µM | > 100 µM | > 100 µM | > 100 µM | – | > 100 µM | > 100 µM | > 100 µM | > 100 µM | > 100 µM | > 100 µM | > 100 µM | – | –
5 | FC(F)(F)c1ccccc1N1CCN(c2nc(-c3cccs3)nc3ccc(Br)cc23)CC1 | > 100 µM | 39.8 µM | 94.5 µM | > 100 µM | > 100 µM | > 100 µM | 74.1 µM | > 100 µM | > 100 µM | > 100 µM | > 100 µM | 97.3 µM | > 100 µM | – | > 100 µM | > 100 µM | –
6 | O=C(NCCCCCCNC(=O)n1cc(F)c(=O)[nH]c1=O)NCCCOCCOCCCNC(=O)C(O)C(O)C(O)C(O)CO (centres undefined) | > 2.5 µM | > 2.5 µM | – | > 2.5 µM | > 2.5 µM | > 2.5 µM | > 2.5 µM | > 2.5 µM | > 2.5 µM | > 2.5 µM | > 2.5 µM | – | – | – | – | – | –
7 | COc1ccc(O[C@H](COCc2ccccc2)C[C@@H]2COC(C)(C)O2)cc1 | > 100 µM | > 100 µM | > 100 µM | > 100 µM | – | > 100 µM | > 100 µM | > 100 µM | > 100 µM | > 100 µM | > 100 µM | > 100 µM | > 100 µM | > 100 µM | – | – | –
8 | COC(=O)/C=C(\C)C(=O)N(C)c1ccccc1I | > 100 µM | > 100 µM | > 100 µM | > 100 µM | – | > 100 µM | > 100 µM | – | > 100 µM | > 100 µM | > 100 µM | – | > 100 µM | > 100 µM | > 100 µM | – | –
9 | Cc1ccnc2[nH]c(-c3cccc(Cl)c3)cc(=O)c12 | > 100 µM | > 100 µM | > 47.8 µM | > 100 µM | 0.0611 µM | > 100 µM | > 100 µM | > 100 µM | > 100 µM | > 100 µM | > 50 µM | > 100 µM | > 100 µM | – | > 100 µM | > 100 µM | –
10 | Cn1c(C(C#N)c2nc(Cl)ncc2Br)nc2ccccc21 (centres undefined) | > 100 µM | – | > 100 µM | > 100 µM | – | > 100 µM | – | > 100 µM | > 100 µM | > 100 µM | > 100 µM | > 100 µM | – | > 100 µM | > 100 µM | – | –
11 | COC(=O)c1cc(NC(=O)c2cc(NC(=O)c3cc([N+](=O)[O-])cn3C)cn2C)cn1C | > 100 µM | > 100 µM | > 100 µM | > 100 µM | > 100 µM | > 100 µM | > 100 µM | – | > 100 µM | > 100 µM | > 100 µM | 94.7 µM | – | > 100 µM | > 100 µM | – | –
12 | NCCCn1c2ccccc2c2c3c(c4c(c21)CCC(O)CC4)C(=O)NC3=O (centres undefined) | – | 10.4 µM | 16.6 µM | 15.6 µM | 22 µM | 13.6 µM | 24.1 µM | 13.2 µM | – | 14.3 µM | 11.2 µM | 14.7 µM | 5.15 µM | – | – | 20.9 µM | –
13 | Cc1cc(CNC(=O)OCc2ccccc2)c(C)c2c1Oc1ccccc1O2 | 51.3 µM | > 100 µM | > 87.5 µM | > 100 µM | > 100 µM | > 91.8 µM | > 27.3 µM | 90.7 µM | > 92.9 µM | > 100 µM | > 100 µM | > 100 µM | > 100 µM | – | > 100 µM | 53.6 µM | > 100 µM
14 | CCN(CC)CCCOC(=O)/C=C/c1c(C)[nH]c(=O)[nH]c1=O | > 625 µM | > 625 µM | > 625 µM | > 625 µM | > 625 µM | > 463 µM | > 394 µM | > 625 µM | > 625 µM | > 625 µM | > 625 µM | – | – | – | – | – | –
15 | CCCCc1c(C(=O)OC(C)(C)C)cc(C#Cc2cc(C(=O)OC(C)(C)C)c(CCCC)c(C(=O)OC(C)(C)C)c2)cc1C(=O)OC(C)(C)C | > 100 µM | – | > 100 µM | > 100 µM | – | > 100 µM | > 100 µM | > 100 µM | > 100 µM | > 100 µM | – | > 100 µM | – | > 100 µM | > 100 µM | – | –
16 | COc1ccccc1C1SCC(=O)N1c1ccc(-c2ccc(-n3c(-c4ccccc4)nc4ccccc4c3=O)cc2)cc1 (centres undefined) | > 100 µM | > 100 µM | > 100 µM | > 100 µM | > 100 µM | > 100 µM | > 100 µM | > 100 µM | > 100 µM | > 100 µM | > 100 µM | > 100 µM | – | > 100 µM | > 100 µM | > 100 µM | –
17 | CCCCCCCCCCCCCCCCSCC(COC)COP(=O)([O-])OCC[N+](C)(C)C (centres undefined) | 28.6 µM | 10.1 µM | 12.7 µM | 11.6 µM | 4.4 µM | 11.3 µM | 29.6 µM | 10.9 µM | 9.6 µM | 28.2 µM | 6.05 µM | – | – | – | – | – | –
